Laboratory results reported in patent US20240174625A1, “COMPOSITIONS AND METHODS FOR TREATING TAUOPATHIES” (The Regents of the University of California, priority 2021, published 2024).

Experiments:
[1] = biological target: T1, NPEPPS (Homo sapiens, UniProt P55786); assay: Cell-based NPEPPS activity assay (Q-AMC fluorescence); details: log10 transformed; EC50 = concentration that elevates 50% NPEPPS activity (150% of DMSO baseline); HEK293T cells
T1 construct: endogenous in cells; host or cells: HEK293T
Protocol: HEK293T cells (AATC) were maintained in a complete media containing DMEM (Gibco 11995-065) in the presence of 10% fetal bovine serum (FBS, Gibco 10082147), […] penicillin and 50 μg/ml streptomycin (Gibco 15140163) at 37° C. with 5% CO2. NPEPPS activity assay was conducted in a fresh-prepared minimal medium containing essential amino acids, vitamin, AlbuMax (Invitrogen 11021-029) in 1×HBS buffer. Black wall, clear bottom 384-well assay plates (Greiner EK-30092) were coated with poly-L-ornithine (0.1 mg/ml, Sigma P3655) overnight and washed once with 1×PBS. 15 μl minimal medium was then added to each well. 250 nL of compounds dissolved in OmniSolve methylsulfoxide (dimethyl sulfoxide, DMSO, Sigma MX1456P) were pinned to each well via Biomek FX^P Liquid Handling Automation (Beckman Coulter) from compound source plates, i.e., either pre-made compound libraries or JMM compounds (20-step, 2-fold dilution) dissolved in OmniSolve DMSO prepared via Biomek automation in 384-well clear V-bottom polypropylene microplates (ThermoScientific 50-823-639). Cells were harvested, resuspended in minimal medium, and seeded at 16,500 cells/15 μl/well in the 384-well assay plates. 24 hrs later, 30 μl 200 μM H-Gln-AMC hydrobromide salt (Q-AMC, Bachem #I-1175) in 1×HBS containing 0.1% DMSO was added into each well. The fluorescent signal at excitation/emission wavelengths of 360/460 nm was measured immediately upon Q-AMC addition and 3 hrs post-Q-AMC. The change in fluorescence is measured as a readout of NPEPPS activity.
To identify small molecules that either increase NPEPPS levels or NPEPPS activity, a cell-based NPEPPS activity assay amenable to high-throughput screening (HTS) by adapting a fluorescent peptidase activity assay^2 was developed. Since NPEPPS is one of the only aminopeptidases capable of cleaving glutamine-peptide bonds^3 and the major aminopeptidase responsible for degradation of poly-glutamine sequences in the brain^4, a fluorogenic compound, glutamine-7-amino-4-methylcoumarin (Q-AMC), was selected as a substrate to measure NPEPPS activity. The peptide bond of Q-AMC is hydrolyzed by NPEPPS to release glutamine and a fluorescent product, 7-amino-4-methylcoumarin (AMC), when Q-AMC is added directly to the cell culture media. This change in fluorescence is measured as a readout of aminopeptidase activity (FIG. 2A). Overexpression of NPEPPS in HEK293T cells results in a significant increase in fluorescence, whereas knock-down or chemical inhibition of NPEPPS decrease fluorescence change (FIG. 2B-D), validating that the changes in fluorescence observed in the Q-AMC-based assay directly correlate with changes in NPEPPS activity. A high-throughput (HTS) screen (201,845 compounds) was conducted at the UCLA MSSR core (FIG. 2E). Follow-up assays and chemical clustering identified three series of compounds with distinct chemical clusters (FIG. 2F).
To investigate the effects of JMM compounds that enhance NPEPPS activity and assess their cellular toxicity, 139 compounds in the JMM series (i.e., JMM001-JMM139) were tested in dose responses (20-step, 2-fold dilution) using NPEPPS activity and viability assays in HEK293T cells. 76 compounds harboring different modifications produce concentration-dependent enhancement on NPEPPS activity compared to DMSO control (FIG. 4). […] A therapeutic index (TI, a ratio of IC50 over EC50) is used to evaluate the relative safety profiles of the compounds. […] 16 JMM compounds show both improved potency and reduced toxicity (EC50<10 μM and TI>10, Table 1).

[2] = system: HEK293T cells; assay: Cell viability assay (CellTiter Glo); type: cell-based, human; details: for IC50: Homo sapiens, HEK-293T, log10 transformed, IC50 = concentration that suppresses 50% cell viability, HEK293T cells; for Therapeutic index: ratio of IC50 (cell viability) over EC50 (NPEPPS activity)
Summary of the method: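 HEK293T cells seeded at 16,500 per well on poly-L-ornithine in minimal medium with amino acids, vitamins and AlbuMax in HBS, with compound added as a 20-step 2-fold dilution. CellTiter Glo luminescence was read after 24 h. Viability is the signal normalized to DMSO control.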

T1 sequence (P55786 whole entry): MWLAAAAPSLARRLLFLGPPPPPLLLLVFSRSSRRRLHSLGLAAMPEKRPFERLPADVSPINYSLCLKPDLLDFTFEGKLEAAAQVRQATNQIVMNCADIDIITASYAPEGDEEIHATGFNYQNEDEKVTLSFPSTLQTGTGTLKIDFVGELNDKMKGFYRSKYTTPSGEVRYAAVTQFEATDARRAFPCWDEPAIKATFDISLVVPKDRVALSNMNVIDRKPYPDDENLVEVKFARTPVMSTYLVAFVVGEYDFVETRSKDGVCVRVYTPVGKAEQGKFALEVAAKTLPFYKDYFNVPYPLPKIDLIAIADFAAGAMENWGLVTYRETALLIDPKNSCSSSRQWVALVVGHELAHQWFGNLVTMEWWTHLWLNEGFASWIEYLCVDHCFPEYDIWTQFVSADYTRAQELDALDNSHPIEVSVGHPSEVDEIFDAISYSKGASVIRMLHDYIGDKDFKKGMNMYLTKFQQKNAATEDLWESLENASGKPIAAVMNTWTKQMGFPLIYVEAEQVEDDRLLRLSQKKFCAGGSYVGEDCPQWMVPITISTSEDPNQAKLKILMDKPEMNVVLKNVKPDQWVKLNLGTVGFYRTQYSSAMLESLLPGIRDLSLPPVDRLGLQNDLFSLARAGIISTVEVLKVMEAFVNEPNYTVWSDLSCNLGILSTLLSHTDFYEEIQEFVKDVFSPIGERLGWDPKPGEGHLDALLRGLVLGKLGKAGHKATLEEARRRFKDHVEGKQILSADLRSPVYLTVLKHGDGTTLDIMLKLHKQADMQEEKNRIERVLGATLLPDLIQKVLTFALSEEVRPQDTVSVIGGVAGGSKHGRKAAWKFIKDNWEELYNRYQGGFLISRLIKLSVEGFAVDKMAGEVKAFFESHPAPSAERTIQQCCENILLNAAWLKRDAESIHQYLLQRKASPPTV

EC50 [1] | Compound | IC50 [2] | Therapeutic index [2]
20.4 µM | FC(F)(F)c1ccc(CNc2noc3ccccc23)cc1 [JMM039] | 61.7 µM | 3.03
50.1 µM | FC(F)(F)c1cccc(CNc2nsc3ccccc23)c1 [JMM032] | 3090 µM | 62.09
214 µM | COc1ccc(CNc2ccc(F)cn2)cc1OC [JMM046] | 479 µM | 2.24
1020 µM | COc1ccc(C(=O)Nc2nsc3ccccc23)cc1OC [JMM002] | 1410 µM | 1.36
126 µM | c1ccc(COc2ccc3snc(NCc4ccc(OCc5cccc6ccccc56)cc4)c3c2)cc1 [JMM106, 5-(Benzyloxy)-N-(4-(naphthalen-1-ylmethoxy)benzyl)benzo[d]isothiazol-3-amine] | 794 µM | 6.26
7.41 µM | FC(F)(F)c1ccc(COc2ccc(CNc3nsc4ccccc34)cc2)cc1 [JMM031] | 77.6 µM | 10.38
251 µM | COc1ccc(CCNc2nsc3ccccc23)cc1OC [JMM020] | 120 µM | 0.48
162 µM | C[C@@H](Nc1nsc2ccccc12)c1cccc2ccccc12 [JMM102] | 417 µM | 2.54
145 µM | CN(Cc1ccc(OCc2ccccc2)cc1)c1nsc2ccccc12 [JMM091] | 174 µM | 1.19
398 µM | COc1ccc(CNc2nsc3ccc(OC)cc23)cc1 [JMM097] | 229 µM | 0.57
42.7 µM | CN(Cc1cccc2ccccc12)c1nsc2ccccc12 [JMM110, N-Methyl-N-(naphthalen-1-ylmethyl)benzo[d]isothiazol-3-amine] | 229 µM | 5.40
53.7 µM | Fc1cccc2c(NCc3ccc(C(F)(F)F)cc3)nsc12 [JMM027] | 52.5 µM | 0.98
44.7 µM | c1ccc(COc2ccc3snc(NCc4ccc(Oc5ccccc5)cc4)c3c2)cc1 [JMM115, 5-(Benzyloxy)-N-(4-phenoxybenzyl)benzo[d]isothiazol-3-amine] | 263 µM | 5.83
34.7 µM | FC(F)(F)c1ccc(CNc2nsc3ccccc23)cc1 [JMM005] | 117 µM | 3.42
5.01 µM | CN(Cc1ccc(Cl)c(Cl)c1)c1nsc2ccc(OCc3ccccc3)cc12 [JMM093] | 20.4 µM | 4.06
27.5 µM | Clc1ccc2snc(NCc3ccc(OCc4ccccc4)cc3)c2c1 [JMM129, N-(4-(Benzyloxy)benzyl)-5-chlorobenzo[d]isothiazol-3-amine] | 661 µM | 24.01
120 µM | c1ccc(COc2ccc3snc(NCc4cccs4)c3c2)cc1 [JMM119, 5-(Benzyloxy)-N-(thiophen-2-ylmethyl)benzo[d]isothiazol-3-amine] | 501 µM | 4.20
56.2 µM | FC(F)(F)c1ccc(CNc2ncccn2)cc1 [JMM049] | 162 µM | 2.93
12.9 µM | c1ccc(COc2ccc(CNc3nsc4ccccc34)cc2)cc1 [JMM014] | 22.4 µM | 1.75

EC50 [1] | Compound | IC50 [2] | Therapeutic index [2]
4.68 µM | c1ccc(CNc2ccc(CNc3nsc4ccc(OCc5ccccc5)cc34)cc2)cc1 [JMM122, N-(4-(Benzylamino)benzyl)-5-(benzyloxy)benzo[d]isothiazol-3-amine] | 324 µM | 69.07
67.6 µM | FC(F)(F)c1ccc(CNc2nsc3ncccc23)cc1 [JMM059] | 120 µM | 1.78
13.8 µM | FC(F)(F)c1ccc2snc(NCc3ccc(OCc4ccccc4)cc3)c2c1 [JMM134, N-(4-(Benzyloxy)benzyl)-5-(trifluoromethyl)benzo[d]isothiazol-3-amine] | 257 µM | 18.60
11.7 µM | FC(F)(F)c1ccc(CNc2nsc3ccc(OCc4ccc(C(F)(F)F)cc4)cc23)cc1 [JMM137, N-(4-(Trifluoromethyl)benzyl)-5-((4-(trifluoromethyl)benzyl)oxy)benzo[d]isothiazol-3-amine] | 38.9 µM | 3.30
123 µM | FC(F)(F)Oc1ccc(CNc2nsc3ccccc23)cc1 [JMM054] | 132 µM | 1.08
5.13 µM | c1ccc(COc2ccc3snc(NCc4ccc(OCc5cccs5)cc4)c3c2)cc1 [JMM132, 5-(Benzyloxy)-N-(4-(thiophen-2-ylmethoxy)benzyl)benzo[d]isothiazol-3-amine] | 12 µM | 2.36
219 µM | c1cc(CNc2nsc3ccccc23)c2cc[nH]c2c1 [JMM030] | 257 µM | 1.16
10.2 µM | FC(F)(F)Sc1ccc(CNc2nsc3ccc(OCc4ccccc4)cc23)cc1 [JMM096] | 63.1 µM | 6.09
57.5 µM | Fc1ccc(COc2ccc(CNc3nsc4ccc(OCc5ccccc5)cc34)cc2)cc1 [JMM117, 5-(Benzyloxy)-N-(4-((4-fluorobenzyl)oxy)benzyl)benzo[d]isothiazol-3-amine] | 110 µM | 1.88
0.977 µM | CN(Cc1ccc(OCc2ccccc2)cc1)c1nsc2ccc(OCc3ccccc3)cc12 [JMM088] | 97.7 µM | 100.53
200 µM | N#Cc1cccc2c(NCc3ccc(C(F)(F)F)cc3)nsc12 [JMM070] | 2630 µM | 13.25
51.3 µM | Cc1ccc(CNc2nsc3ccccc23)cc1 [JMM023] | 229 µM | 4.47
22.4 µM | FC(F)(F)c1ccc(CNc2nsc3cnccc23)cc1 [JMM065] | 132 µM | 5.91
25.7 µM | Fc1ccccc1COc1ccc(CNc2nsc3ccc(OCc4ccccc4)cc23)cc1 [JMM118, 5-(Benzyloxy)-N-(4-((2-fluorobenzyl)oxy)benzyl)benzo[d]isothiazol-3-amine] | 15.5 µM | 0.60
22.4 µM | Clc1ccc(CNc2nsc3ccc(OCc4ccccc4)cc23)cc1Cl [JMM090] | 30.9 µM | 1.39
26.3 µM | c1ccc(COc2ccc3snc(NCc4ccc(-c5ccccc5)cc4)c3c2)cc1 [JMM105, N-([1,1′-Biphenyl]-4-ylmethyl)-5-(benzyloxy)benzo[d]isothiazol-3-amine] | 53.7 µM | 2.02
70.8 µM | C[C@H](Nc1nsc2ccccc12)c1cccc2ccccc12 [JMM101] | 407 µM | 5.74
200 µM | CC(Nc1nsc2ccccc12)c1ccccc1 (stereo not drawn) [JMM075] | 132 µM | 0.65
28.8 µM | FC(F)(F)c1ccc(CNc2nsc3c(Br)cccc23)cc1 [JMM028] | 33.9 µM | 1.19
